Read-outs that look alike come from different tables or passages of the source.
How the values were obtained:
[1] = Urinary excretion of unchanged FDV after single ascending dose (Part 1); type: in vivo, human; details: gMean (gCV%)
Experimental: (§1) Six volunteers received the active drug at each dose level dissolved in a polyethylene glycol (PEG)/tromethamine (TRIS)/meglumine solution, and two received a placebo. One dose level was tested within each group. Subject groups were dosed and evaluated sequentially, beginning with the lowest-dose group and proceeding stepwise to the highest-dose group. The next higher dose was administered only if no safety concerns arose during treatment of the preceding group.
A blank urine sample was collected prior to drug administration, and two 10-mL aliquots were retained to be checked for analytical interference. All urine voided during the sampling intervals 0–4, 4–12, 12–24, and 24–48 h after administration was collected in containers (Figure 1). Subjects were asked to completely void their bladder at the end of each collection interval. The urine volume for each collection interval was documented. Two aliquots of approximately 5 mL were taken and frozen at −20 °C or below and stored for bioanalytical measurement. Until shipped on dry ice to the analytical laboratory, the urine samples were stored at −20 °C or below at the clinical site and stored in the analytical laboratory at −20 °C or below until analysis.
(§2) Standard formulas for non-compartmental pharmacokinetic analysis provided by WinNonlin were used in determination of the maximum concentration (Cmax), time to maximum concentration (tmax), oral clearance (CL/F), mean residence time (MRTpo), and apparent volume distribution in terminal phase (Vz/F). The area under the plasma concentration–time curve (AUC) was calculated using a linear up/log down trapezoidal algorithm. The predicted concentration at the last time-point with quantifiable concentration was used for extrapolation of AUC. The fraction excreted as unchanged drug in urine (fe) was calculated as the percentage of the amount of drug excreted in urine as unchanged drug (Aet1–t2) compared to the administered dose ([Huang et al., 2008b]).

[2] = Food effect on relative bioavailability of 480 mg FDV, two-period crossover (Part 2); type: in vivo, human; details: for Tmax: median (range); for Tmax / AUC(0-t) / Vd/F / half-life: N = 7; for AUC(0-t) / Vd/F / half-life: mean (CV%); for Vd/F: read-out: Vz/F; for half-life: read-out: t½ (converted)
Experimental: Blood samples were taken pre-dose (0) and at prespecified time points after dosing (Figure 1). At each time point, approximately 4.9 mL of blood was drawn into evacuated collection tubes, containing ethylene diamine tetraacetate (EDTA) anticoagulant and labeled with sample identification information. The EDTA-anticoagulated blood samples were immediately placed on ice and centrifuged at 4 °C and approximately 2000–4,000 g for approximately 10 min in a refrigerated centrifuge as soon as possible after collection. The harvested plasma was split into two aliquots, immediately placed in appropriately labeled tubes, and stored at −20 °C or below until shipment.
as §2, with “2008b]). […]” for “2008b]).”

[3] = Safety and tolerability, food effect part (Part 2); type: in vivo, human
Experimental: as §1
Safety was assessed throughout the study by monitoring changes in clinical laboratory parameters (e.g., serum biochemistry, hematology, and urinalysis), 12-lead electrocardiograms, or vital signs (blood pressure, pulse rate, and temperature measurements); monitoring for occurrence of AEs); and carrying out physical examinations.

human Hepato Pac model = tested on: human Hepato Pac model; parameters: method as in Ramsden et al., 2014b; details: ref Ramsden et al., 2014b; cited from earlier work
[4] = HCV-infected patients, ref Huang et al., cited from earlier work
HCV = tested on: HCV; parameters: method as in Ferenci et al., 2015; details: in combination with PegIFN and RBV, treatment-naïve patients; ref Ferenci et al., 2015; cited from earlier work
CYP2C9 = details: therapeutic dose of 120 mg QD; cited from earlier work
CYP3A4 = details: therapeutic dose of 120 mg QD; cited from earlier work
[5] = 480 mg FDV in solution, fed vs fasted
[6] = male, human, plasma, oral, 480 mg, FDV 480 mg/fasted
[7] = male, human, plasma, oral, 480 mg, FDV 480 mg/fed

C=C[C@@H]1C[C@]1(NC(=O)[C@@H]1C[C@@H](Oc2cc(-c3csc(NC(=O)C(C)C)n3)nc3c(Br)c(OC)ccc23)CN1C(=O)[C@@H](NC(=O)OC1CCCC1)C(C)(C)C)C(=O)O [FDV, Faldaprevir]
Fe0–48h (fraction excreted in urine) ([1]; FDV 48 mg single oral dose): 0.01 (165) %
Fe0–48h (fraction excreted in urine) ([1]; FDV 120 mg single oral dose): 0.02 (93) %
Fe0–48h (fraction excreted in urine) ([1]; FDV 240 mg single oral dose): 0.04 (68) %
Fe0–48h (fraction excreted in urine) ([1]; FDV 480 mg single oral dose): 0.04 (37) %
Fe0–48h (fraction excreted in urine) ([1]; FDV 800 mg single oral dose): 0.03 (110) %
Fe0–48h (fraction excreted in urine) ([1]; FDV 1,200 mg single oral dose): 0.03 (54) %
Increase of AUC0–∞ (systemic exposure) after high-fat breakfast [2, 5]: 14%
Increase of Cmax after high-fat and high-calorie breakfast [2, 5]: 9%
Effect of food on the rBA of FDV ([2]; 480 mg FDV in solution, high-fat breakfast): no clinically relevant effect
Tmax ([2]; FDV 480 mg/fasted): 4 (4–6) h
Tmax ([2]; FDV 480 mg/fed): 6 (4–12) h
AUC(0-t) [2, 6]: 83400 ng·h/mL
Vd/F [2, 6]: 161 L
half-life [2, 6]: 19.6 h
Tmax ([2]; male, human, plasma, oral, 480 mg, FDV 480 mg/fasted, read-out: tmax): 6 h
AUC(0-t) [2, 7]: 92000 ng·h/mL
Vd/F [2, 7]: 132 L
half-life [2, 7]: 18 h
Tmax ([2]; male, human, plasma, oral, 480 mg, FDV 480 mg/fed, read-out: tmax): 4 h
Subjects with increases in total bilirubin ([3]; 480 mg, Part 2): eight subjects
Diarrhea and nausea ([3]; Part 2, FDV 480 mg (n = 8)): three subjects
Headache ([3]; Part 2, FDV 480 mg (n = 8)): one subject
Vomiting ([3]; Part 2, FDV 480 mg (n = 8)): two subjects
Predicted enrichment in the liver in humans (human Hepato Pac model): 22–32 fold
FDV exposure at 240 mg compared to the 120-mg dose, based on trough concentrations [4]; 2016: approximately 5 fold
FDV exposure at 240 mg compared to the 120-mg dose, based on AUC0–24,ss [4]; 2021: up to 7 fold
Sustained virologic response (SVR) rate (HCV): up to 84%
Effect on CYP2C9 (CYP2C9): inhibitory effects
Effect on CYP3A4 (CYP3A4): weak inhibitory effects
